Source: patent US7057052B2, “Heterocyclic quinones as pharmaceutical agents” (Duke University, priority 2002, dated 2006)

The molecules below were run against T1, Cdc25B (Homo sapiens, UniProt P30305) (assay: Cdc25B phosphatase inhibition (50 μM screen, 3 pt. and 8 pt. IC-50)). Conditions: Cdc25B; 3 pt. IC-50 using 1, 7 and 50 μM; read-out: IC50 (3 pt).
T1 sequence (P30305 1-580): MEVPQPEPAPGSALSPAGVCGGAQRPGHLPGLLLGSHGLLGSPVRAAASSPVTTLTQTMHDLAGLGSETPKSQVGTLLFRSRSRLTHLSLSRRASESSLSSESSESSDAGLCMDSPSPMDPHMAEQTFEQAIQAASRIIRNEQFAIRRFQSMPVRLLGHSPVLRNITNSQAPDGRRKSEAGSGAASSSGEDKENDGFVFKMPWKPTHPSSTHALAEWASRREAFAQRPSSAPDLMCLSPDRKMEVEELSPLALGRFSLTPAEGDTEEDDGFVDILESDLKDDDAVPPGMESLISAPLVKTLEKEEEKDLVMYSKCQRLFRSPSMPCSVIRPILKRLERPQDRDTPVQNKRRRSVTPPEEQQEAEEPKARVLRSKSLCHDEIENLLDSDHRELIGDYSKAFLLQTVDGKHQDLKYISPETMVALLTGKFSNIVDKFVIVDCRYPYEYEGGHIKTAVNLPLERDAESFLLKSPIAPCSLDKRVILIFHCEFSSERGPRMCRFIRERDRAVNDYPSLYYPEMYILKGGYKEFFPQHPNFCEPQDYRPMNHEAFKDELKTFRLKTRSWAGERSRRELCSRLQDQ
Assay type: biochemical
Procedure: Using procedures known to those skilled in the art, the compounds listed in Table 3 were screened against Cdc25A, Cdc25B, and Cdc25C at 50 μM. […] To analyze these effects further, the compounds were then screened against Cdc25B in a 3 pt. IC-50, using 1, 7 and 50 μM. Several of the compounds were also screened with an 8 pt. IC-50 process, using 0.1–10 μM, allowing determination of Hill slopes.

In order of falling IC50:
1. COc1ccc2[nH]cc(C3=C(O)C(=O)C(c4c(C(C)(C)C)[nH]c5ccccc45)=C(O)C3=O)c2c1 [9H, 2-(2-tert-butyl-1H-indol-3-yl)-3,6-dihydroxy-5-(5-methoxyl-1H-indol-3-yl)-[1,4]-benzoquinone]  80.3 µM
2. Cc1cccc2c(C3=C(O)C(=O)C(c4c(C(C)(C)C)[nH]c5ccccc45)=C(Cl)C3=O)c[nH]c12 [11G, 2-(2-tert-butyl-1H-indol-3-yl)-5-(7-methyl-1H-indol-3-yl)-3-chloro-6-hydroxy-[1,4]-benzoquinone]  33.8 µM
3. CC(C)(C)c1[nH]c2ccccc2c1C1=C(O)C(=O)C(c2c(C(C)(C)C)[nH]c3ccccc23)=C(Cl)C1=O [11E, 2,5-bis(2-tert-butyl-1H-indol-3-yl)-3-chloro-6-hydroxy-[1,4]-benzoquinone]  22.9 µM
4. Cc1[nH]c2ccccc2c1C1=C(O)C(=O)c2cccc(O)c2C1=O [11D, 2,5-dihydoxy-3-(2-methyl-1H-indol-3-yl)-[1,4]naphthoquinone]  18 µM
5. Cc1[nH]c2ccccc2c1C1=C(O)C(=O)C(c2c(C)[nH]c3ccccc23)=C(O)C1=O [11C, 2,5-dihydroxy-3,6-bis(2-methyl-1H-indol-3-yl)l-[1,4]-benzoquinone]  15.7 µM
6. Cc1ccc2[nH]c(C)c(C3=C(O)C(=O)C(c4c(C(C)(C)C)[nH]c5ccccc45)=C(O)C3=O)c2c1 [10G, 2-(2-tert-butyl-1H-indol-3-yl)-3,6-dihydroxy-5-(2,5-dimethyl-1H-indol-3-yl)-[1,4]-benzoquinone]  14.6 µM
7. COc1cccc2[nH]cc(C3=C(O)C(=O)C(c4c(C(C)(C)C)[nH]c5ccccc45)=C(O)C3=O)c12 [9E, 2-(2-tert-butyl-1H-indol-3-yl)-3,6-dihydroxy-5-(4-methoxy-1H-indol-3-yl)-[1,4]-benzoquinone]  13.7 µM
8. Cn1cc(C2=C(O)C(=O)C(c3c(C(C)(C)C)[nH]c4ccccc34)=C(O)C2=O)c2ccccc21 [8G, 2-(2-tert-butyl-1H-indol-3-yl)-3,6-dihydroxy-5-(1-methyl-1H-indol-3-yl)-[1,4]-benzoquinone]  12 µM
9. CC(C)(C)c1[nH]c2ccccc2c1C1=C(O)C(=O)C(c2c[nH]c3ccccc23)=C(O)C1=O [8F, 2-(2-tert-butyl-1H-indol-3-yl)-3,6-dihydroxy-5-(1H-indol-3-yl)-[1,4]-benzoquinone]  11.2 µM
10. CC(C)(C)c1[nH]c2ccccc2c1C1=C(O)C(=O)C(c2c[nH]c3ccc(F)cc23)=C(O)C1=O [9G, 2-(2-tert-butyl-1H-indol-3-yl)-3,6-dihydroxy-5-(5-fluoro-1H-indol-3-yl)-[1,4]-benzoquinone]  8.7 µM
11. Cc1[nH]c2ccc(Cl)cc2c1C1=C(O)C(=O)C(c2c(C(C)(C)C)[nH]c3ccccc23)=C(O)C1=O [11A, 2-(2-tert-butyl-1H-indol-3-yl)-3,6-dihydroxy-5-(2-methyl-5-chloro-1H-indol-3-yl)-[1,4]-benzoquinone]  8.4 µM
12. Cn1cc(C2=C(O)C(=O)C(c3ccccc3)=C(O)C2=O)c2ccccc21 [11B, 2,5-dihydroxy-3-(1-methyl-1H-indol-3-yl)-6-phenyl-[1,4]-benzoquinone]  7.9 µM
13. Cc1ccc2[nH]cc(C3=C(O)C(=O)C(c4c(C(C)(C)C)[nH]c5ccccc45)=C(O)C3=O)c2c1 [10B, 2-(2-tert-butyl-1H-indol-3-yl)-3,6-dihydroxy-5-(5-methyl-1H-indol-3-yl)-[1,4]-benzoquinone]  7.2 µM
14. CC(C)(C)c1[nH]c2ccccc2c1C1=C(Cl)C(=O)C(c2c(-c3ccccc3)[nH]c3ccccc23)=C(O)C1=O [11H, 2-(2-tert-butyl-1H-indol-3-yl)-5-(2-phenyl-1H-indol-3-yl)-3-chloro-6-hydroxy-[1,4]-benzoquinone]  6.7 µM
15. CC(C)(C)c1[nH]c2ccccc2c1C1=C(O)C(=O)C(c2c(-c3ccccc3)[nH]c3ccccc23)=C(O)C1=O [9D, 2-(2-tert-butyl-1H-indol-3-yl)-3,6-dihydroxy-5-(2-phenyl-1H-indol-3-yl)-[1,4]-benzoquinone]  6.1 µM
16. CC(C)(C)c1[nH]c2ccccc2c1C1=C(Cl)C(=O)C(c2c[nH]c3c(C(C)(C)C)cccc23)=C(O)C1=O [8D, 2-(2-tert-butyl-1H-indol-3-yl)-5-(7-tert-butyl-1H-indol-3-yl)-3-chloro-6-hydroxy-[1,4]-benzoquinone]  5.8 µM
17. Cc1[nH]c2ccccc2c1C1=C(O)C(=O)C(c2c(C(C)(C)C)[nH]c3ccccc23)=C(O)C1=O [8H, 2-(2-tert-butyl-1H-indol-3-yl)-3,6-dihydroxy-5-(2-methyl-1H-indol-3-yl)-[1,4]-benzoquinone]  5.8 µM
18. CC(C)(C)c1[nH]c2ccccc2c1C1=C(O)C(=O)C(c2c(C3CC3)[nH]c3ccccc23)=C(O)C1=O [9A, 2-(2-tert-butyl-1H-indol-3-yl)-3,6-dihydroxy-5-(2-cyclopropyl-1H-indol-3-yl)-[1,4]-benzoquinone]  5.6 µM
19. CC(C)(C)c1[nH]c2ccccc2c1C1=C(O)C(=O)C(c2c[nH]c3cc(F)ccc23)=C(O)C1=O [10C, 2-(2-tert-butyl-1H-indol-3-yl)-3,6-dihydroxy-5-(6-fluoro-1H-indol-3-yl)-[1,4]-benzoquinone]  5.3 µM
20. Cc1ccc2c(C3=C(O)C(=O)C(c4c(C(C)(C)C)[nH]c5ccccc45)=C(O)C3=O)c[nH]c2c1 [10D, 2-(2-tert-butyl-1H-indol-3-yl)-3,6-dihydroxy-5-(6-methyl-1H-indol-3-yl)-[1,4]-benzoquinone]  5.3 µM
21. CC(C)(C)c1[nH]c2ccccc2c1C1=C(O)C(=O)C(c2c(C(C)(C)C)[nH]c3ccccc23)=C(O)C1=O [9C, 2-(2-tert-butyl-1H-indol-3-yl)-3,6-dihydroxy-5-(2-tert-butyl-1H-indol-3-yl)-[1,4]-benzoquinone]  5.1 µM
22. CC(C)c1[nH]c2ccccc2c1C1=C(O)C(=O)C(c2c(C(C)(C)C)[nH]c3ccccc23)=C(O)C1=O [9B, 2-(2-tert-butyl-1H-indol-3-yl)-3,6-dihydroxy-5-(2-isopropyl-1H-indol-3-yl)-[1,4]-benzoquinone]  5 µM
23. Cc1cccc2c(C3=C(O)C(=O)C(c4c(C(C)(C)C)[nH]c5ccccc45)=C(O)C3=O)c[nH]c12 [10E, 2-(2-tert-butyl-1H-indol-3-yl)-3,6-dihydroxy-5-(7-methyl-1H-indol-3-yl)-[1,4]-benzoquinone]  4.8 µM
24. CC(C)(C)c1[nH]c2ccccc2c1C1=C(O)C(=O)C(c2c[nH]c3cccc(OCc4ccccc4)c23)=C(O)C1=O [9F, 2-(2-tert-butyl-1H-indol-3-yl)-3,6-dihydroxy-5-(4-benzyloxy-1H-indol-3-yl)-[1,4]-benzoquinone]  2.3 µM
25. CC(C)(C)c1[nH]c2ccccc2c1C1=C(O)C(=O)C(c2c[nH]c3c(C(C)(C)C)cccc23)=C(O)C1=O [10F, 2-(2-tert-butyl-1H-indol-3-yl)-3,6-dihydroxy-5-(7-tert-butyl-1H-indol-3-yl)-[1,4]-benzoquinone]  0.9 µM
26. C=CC(C)(C)c1[nH]c2ccccc2c1C1=C(O)C(=O)C(c2c[nH]c3c(CC=C(C)C)cccc23)=C(O)C1=O [8E, DAQ-B1, reference compound]  0.9 µM
27. CC(C)(C)c1[nH]c2ccccc2c1C1=C(O)C(=O)C(c2c[nH]c3ccc(OCc4ccccc4)cc23)=C(O)C1=O [10A, 2-(2-tert-butyl-1H-indol-3-yl)-3,6-dihydroxy-5-(5-benzyloxy-1H-indol-3-yl)-[1,4]-benzoquinone]  0.6 µM
